The results in this text go back to ChEMBL document CHEMBL4837223, “Anti-angiogenesis Function of Ononin via Suppressing the MEK/Erk Signaling Pathway” (J Nat Prod, 2021).

Active and inactive are the calls of the source. The calls are words filed in the database; no cut-off is given here.

The test system of data set [1] is HUVEC. Kind of data set: Antiangiogenic activity against VEGF-induced HUVEC cells assessed as reduction in cell migration at 5 uM measured after 48 hrs by Transwell assay. Type of data set: functional, cell-based. The conditions noted are these: Homo sapiens.
The test system of data set [2] is HUVEC. Kind of data set: Antiangiogenic activity against VEGF-induced HUVEC cells assessed as reduction in wound healing at 5 uM measured after 48 hrs by scratch-wound healing assay. Type of data set: functional, cell-based. The conditions noted are these: Homo sapiens.
Data set [3] has as its system HUVEC. The experiment in a line: Antiangiogenic activity against VEGF-stimulated HUVEC cells assessed as reduction in number of sprouting tubules at 5 uM measured after 48 hrs by Matrigel assay based microscopic analysis. The conditions noted are these: Homo sapiens. The class given is functional, cell-based.
Data set [4] deals with HUVEC. Kind of data set: Induction of apoptosis in VEGF-stimulated HUVEC cells at 5 uM measured after 48 hrs by AnnexinV-FITC/PI staining based flow cytometry. The class given is functional, cell-based. The conditions noted are these: Homo sapiens. On the technique in general: In flow cytometry, cells or beads pass a laser one at a time.
Data set [5] deals with HUVEC. The experiment in a line: Induction of apoptosis in VEGF-stimulated HUVEC cells assessed as mitochondrial membrane potential alteration at 5 uM measured after 48 hrs by JC-1 staining based flow cytometry. The conditions noted are these: Homo sapiens. The class given is functional, cell-based.
For data set [6], the system named is HUVEC. The experiment in a line: Induction of apoptosis in VEGF-stimulated HUVEC cells assessed as increase in Cytochrome c protein expression at 5 uM measured after 48 hrs by DAPI staining based confocal microscopy. The class given is functional, cell-based. The conditions noted are these: Homo sapiens.
In data set [7] the test system is HUVEC. The experiment in a line: Induction of apoptosis in VEGF-stimulated HUVEC cells assessed as increase in Bax/Bcl2 ratio at 5 uM measured after 48 hrs by western blot analysis. The class given is functional, cell-based. The conditions noted are these: Homo sapiens. (In western blotting, separated proteins are transferred to a membrane and probed.)
In data set [8] the test system is HUVEC. Kind of data set: Induction of apoptosis in VEGF-stimulated HUVEC cells assessed as increase in cleaved caspase-3 protein expression at 5 uM measured after 48 hrs by western blot analysis. Type of data set: functional, cell-based. The conditions noted are these: Homo sapiens.
Data set [9] concerns HUVEC. The experiment in a line: Downregulation of HIF-1alpha expression in VEGF-stimulated HUVEC cells at 5 uM measured after 48 hrs by western blot analysis. The class given is functional, cell-based. The conditions noted are these: Homo sapiens.
The test system of data set [10] is HUVEC. Kind of data set: Inhibition of VEGFR2 expression in VEGF-induced HUVEC cells at 5 uM incubated for 48 hrs by DAPI staining based confocal microscopy. The conditions noted are these: Homo sapiens. The class given is functional, cell-based.
In data set [11] the test system is HUVEC. Kind of data set: Cytotoxicity against HUVEC cells assessed as reduction in cell vaibility at 5 uM incubated for 48 hrs by MTT assay. Type of data set: cell-based. The conditions noted are these: human. (Tetrazolium dyes change colour on reduction, which living cells bring about.)
Data set [12] deals with HUVEC. Kind of data set: Induction of apoptosis in VEGF-stimulated HUVEC cells assessed as increase in cleaved caspase-9 protein expression at 5 uM measured after 48 hrs by western blot analysis. Type of data set: functional, cell-based. The conditions noted are these: Homo sapiens.
Data set [13] relates to HUVEC. The experiment in a line: Downregulation of HIF-1alpha expression in VEGF-stimulated HUVEC cells at 5 uM measured after 48 hrs by DAPI staining based confocal microscopy. The class given is functional, cell-based. The conditions noted are these: Homo sapiens.
The test system of data set [14] is HUVEC. The experiment in a line: Effect on HIF-1beta expression in VEGF-stimulated HUVEC cells at 5 uM measured after 48 hrs by western blot analysis. Type of data set: functional, cell-based. The conditions noted are these: Homo sapiens.
Data set [15] has as its target Dual specificity mitogen-activated protein kinase kinase; MEK1/2 (Homo sapiens) (UniProt P36507+Q02750). Kind of data set: Inhibition of MEK1/2 in VEGF-stimulated HUVEC cells assessed as reduction in phosphorylated MEK1/2 level at 5 uM incubated for 48 hrs by immunoblot analysis. The class given is cell-based.
Data set [16] has as its target Mitogen-activated protein kinase; ERK1/ERK2 (Homo sapiens) (UniProt P27361+P28482). The experiment in a line: Inhibition of ERK1/2 in VEGF-stimulated HUVEC cells assessed as reduction in phosphorylated […] at 5 uM incubated for 48 hrs by immunoblot analysis. The class given is cell-based.
In data set [17] the test system is HUVEC. Kind of data set: Induction of apoptosis in VEGF-stimulated HUVEC cells assessed as increase in early apoptotic cells at 250 nM measured after 48 hrs by AnnexinV-FITC/PI staining based flow cytometry. The class given is functional, cell-based. The conditions noted are these: Homo sapiens.
Data set [18] has as its system HUVEC. Kind of data set: Induction of apoptosis in VEGF-stimulated HUVEC cells assessed as increase in late apoptotic cells at 250 nM measured after 48 hrs by AnnexinV-FITC/PI staining based flow cytometry. The conditions noted are these: Homo sapiens. The class given is functional, cell-based.
Data set [19] relates to HUVEC. The experiment in a line: Induction of apoptosis in VEGF-stimulated HUVEC cells assessed as mitochondrial membrane potential alteration at 250 nM measured after 48 hrs by JC-1 staining based flow cytometry. The class given is functional, cell-based. The conditions noted are these: Homo sapiens.
Data set [20] relates to HUVEC. The experiment in a line: Induction of apoptosis in VEGF-stimulated HUVEC cells assessed as increase in Bax/Bcl2 ratio at 250 nM measured after 48 hrs by western blot analysis. Type of data set: functional, cell-based. The conditions noted are these: Homo sapiens.
Data set [21] relates to HUVEC. The experiment in a line: Induction of apoptosis in VEGF-stimulated HUVEC cells assessed as increase in cleaved caspase-3 protein expression at 250 nM measured after 48 hrs by western blot analysis. Type of data set: functional, cell-based. The conditions noted are these: Homo sapiens.
The subject of data set [22] is HUVEC. The experiment in a line: Induction of apoptosis in VEGF-stimulated HUVEC cells assessed as increase in cleaved caspase-9 protein expression at 250 nM measured after 48 hrs by western blot analysis. The class given is functional, cell-based. The conditions noted are these: Homo sapiens.

Chain of Dual specificity mitogen-activated protein kinase kinase; MEK1/2 (Homo sapiens) (P36507 whole entry, looked up): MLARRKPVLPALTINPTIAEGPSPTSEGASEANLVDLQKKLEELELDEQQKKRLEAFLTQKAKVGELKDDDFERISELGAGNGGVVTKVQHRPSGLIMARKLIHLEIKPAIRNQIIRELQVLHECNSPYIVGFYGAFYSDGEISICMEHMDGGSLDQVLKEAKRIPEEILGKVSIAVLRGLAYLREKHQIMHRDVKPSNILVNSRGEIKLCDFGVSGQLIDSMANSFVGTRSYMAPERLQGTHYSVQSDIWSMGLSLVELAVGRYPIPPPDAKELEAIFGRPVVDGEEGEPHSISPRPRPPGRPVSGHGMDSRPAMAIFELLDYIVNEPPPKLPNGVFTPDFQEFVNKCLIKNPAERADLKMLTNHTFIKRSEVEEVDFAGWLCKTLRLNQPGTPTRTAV
Chain of Dual specificity mitogen-activated protein kinase kinase; MEK1/2 (Homo sapiens) (Q02750 whole entry, looked up): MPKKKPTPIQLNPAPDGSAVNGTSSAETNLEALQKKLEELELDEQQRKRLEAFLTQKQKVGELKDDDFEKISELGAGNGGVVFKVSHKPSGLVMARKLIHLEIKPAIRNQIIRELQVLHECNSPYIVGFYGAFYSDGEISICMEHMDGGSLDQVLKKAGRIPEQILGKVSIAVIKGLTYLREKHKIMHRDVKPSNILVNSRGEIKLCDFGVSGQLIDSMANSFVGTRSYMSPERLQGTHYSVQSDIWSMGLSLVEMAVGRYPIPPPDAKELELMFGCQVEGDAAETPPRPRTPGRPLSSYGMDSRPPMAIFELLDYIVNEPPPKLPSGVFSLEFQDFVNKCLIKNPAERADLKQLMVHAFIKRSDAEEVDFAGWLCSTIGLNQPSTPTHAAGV
Chain of Mitogen-activated protein kinase; ERK1/ERK2 (Homo sapiens) (P27361 whole entry, looked up): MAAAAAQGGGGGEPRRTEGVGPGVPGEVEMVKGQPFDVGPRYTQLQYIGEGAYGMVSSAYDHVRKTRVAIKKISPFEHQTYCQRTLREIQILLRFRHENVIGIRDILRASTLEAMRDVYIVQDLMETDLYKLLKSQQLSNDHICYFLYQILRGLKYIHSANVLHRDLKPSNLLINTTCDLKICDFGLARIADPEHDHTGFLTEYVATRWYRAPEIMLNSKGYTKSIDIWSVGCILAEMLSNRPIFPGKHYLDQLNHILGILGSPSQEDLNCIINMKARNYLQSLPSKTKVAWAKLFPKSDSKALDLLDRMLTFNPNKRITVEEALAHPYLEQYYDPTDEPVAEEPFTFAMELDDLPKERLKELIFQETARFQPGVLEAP
Chain of Mitogen-activated protein kinase; ERK1/ERK2 (Homo sapiens) (P28482 whole entry, looked up): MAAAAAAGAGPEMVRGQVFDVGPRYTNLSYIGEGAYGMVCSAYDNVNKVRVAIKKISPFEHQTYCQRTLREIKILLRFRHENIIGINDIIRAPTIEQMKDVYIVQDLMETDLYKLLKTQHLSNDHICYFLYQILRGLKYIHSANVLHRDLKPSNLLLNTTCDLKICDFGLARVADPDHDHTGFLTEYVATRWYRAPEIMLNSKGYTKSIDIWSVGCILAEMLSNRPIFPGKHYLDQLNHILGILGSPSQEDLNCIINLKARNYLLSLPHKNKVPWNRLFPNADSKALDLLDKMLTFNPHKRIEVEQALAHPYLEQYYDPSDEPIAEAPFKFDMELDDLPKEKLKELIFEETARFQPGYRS

With `COc1ccc(-c2coc3cc(O[C@@H]4O[C@H](CO)[C@@H](O)[C@H](O)[C@H]4O)ccc3c2=O)cc1` [ONONIN], the outcome in data set [1], in data set [2], in [3], in [4], in data set [5] and in data set [6] was Active. In addition, the outcome in data set [7], in [8] and in data set [12] was Active. In addition, the inhibition entry in data set [9], in [10], in data set [13], in data set [15] and in data set [16] was “Active” throughout. In data set [11], the Activity entry is “Non-Toxic”. In [14], the result was inactive.

For `CN[C@@H]1C[C@H]2O[C@@](C)([C@@H]1OC)n1c3ccccc3c3c4c(c5c6ccccc6n2c5c31)C(=O)NC4`, the outcome in data set [17], in [18], in [19], in [20], in [21] and in data set [22] was Active.
